Source: patent publication US5482957A, “Azole derivatives, process for their preparation and their use” (Hoechst Aktiengesellschaft, priority 1991, dated 1996)

Target: angiotensin II receptor
Assay: Displacement of 125I- or 3H-angiotensin II from receptor preparations from various organs (liver, lung, adrenal gland, brain etc.)
Assay type: binding
Details: Table 1; radioligand displacement, 25° C., 90 min, pH 7.4
Method: Alternatively, the affinity of the compounds of the formula I for the angiotensin II receptor can be determined by measurement of the ^125 I-angiotensin II or ^3 H-angiotensin II displacement of receptor preparations from various organs (liver, lung, adrenal gland, brain etc.).
To this end, the prepared membranes are suspended in an incubation buffer ([…], pH 7.4, containing 135 mM NaCl, 10 mM KCl, 10 mM MgCl2, 5 mM glucose, 0.2% bovine serum albumin and the protease inhibitors PMSF, 0.3 mM, and bacitracin, 0.1 mM) and incubated at 25° C. for 90 min together with the radioactively labeled angiotensin II and various concentrations of the compounds to be tested. Bound and free radioligand are then separated by filtration through micro glass fiber filters (GF51, Schleicher and Schull) in a cell collector (SKATRON).
The degree of displacement of the radioligand from the receptor by the test compounds is determined by measurement of the receptor-bound radioactivity on the filters by means of a beta- or gamma-spectrometer. The amount of the displacement of the radioligand from the receptor by the test compounds is indicated by the IC50, i.e. the concentration of the inhibitor which displaces 50% of the bound radioligand from the receptor. The calculation of the IC50 values is carried out by means of PC software (LIGAND, G. A. McPherson 1985, Elsevier BIOSOFT, 68 Hills Road, Cambridge, CB2 1LA, UK.).

Row | SMILES | IC50 [nM]
1 | CCCCc1nc(SC)c(C(=O)O)n1Cc1ccc(-c2ccccc2S(=O)(=O)NC(=O)N[C@H](CO)c2ccccc2)cc1 [Example 124] | 1.8
2 | CCCCc1nc(SC)c(C(=O)O)n1Cc1ccc(-c2ccccc2S(=O)(=O)NC(=O)N[C@@H](CO)c2ccccc2)cc1 [Example 125] | 2.8
3 | C=C[C@H](Cc1ccccc1)NC(=O)NS(=O)(=O)c1ccccc1-c1ccc(Cn2c(CCCC)nc(SC)c2C(=O)O)cc1 [Example 127] | 3
4 | CCCCc1nc(SC)c(C(=O)OCC)n1Cc1ccc(-c2ccccc2S(=O)(=O)NC(=O)N[C@H](CO)Cc2ccccc2)cc1 [Example 128] | 5.6
5 | CCCCc1nc(SC)c(C(=O)O)n1Cc1ccc(-c2ccccc2S(=O)(=O)NC(=O)N[C@H](CO)Cc2ccccc2)cc1 [Example 129] | 1.5
6 | CCCCc1nc(SC)c(C(=O)O)n1Cc1ccc(-c2ccccc2S(=O)(=O)NC(=O)n2cccc2)cc1 [Example 139] | 2.8
7 | CCCCc1nc(SC)c(C(=O)O)n1Cc1ccc(-c2ccccc2S(=O)(=O)NC(=O)OCCc2ccccc2)cc1 [Example 152] | 1.5
8 | CCCCc1nc(SC)c(C(=O)O)n1Cc1ccc(-c2ccccc2S(=O)(=O)NC(=O)OCc2cccs2)cc1 [Example 160] | 0.73
9 | CCCCc1nc(SC)c(C(=O)O)n1Cc1ccc(-c2ccccc2S(=O)(=O)NC(=O)OCC=Cc2ccccc2)cc1 [Example 162] | 3.9
10 | CCCCc1nc(SC)c(C(=O)O)n1Cc1ccc(-c2ccccc2S(=O)(=O)NC(=O)OCc2cccs2)cc1 [Example 164] | 0.86
11 | CCCCc1nc(SC)c(C(=O)O)n1Cc1ccc(-c2ccccc2S(=O)(=O)NC(=O)OCCOCc2ccccc2)cc1 [Example 172] | 0.48
12 | CCCCc1nc(SC)c(C(=O)O)n1Cc1ccc(-c2ccccc2S(=O)(=O)NS(=O)(=O)N(C)C)cc1 [Example 179, 1-[1-(2'-dimethylsulfamoylaminosulfonylbiphenyl-4-yl)methyl]-2-n-butyl-4-methylthioimidazole-5-carboxylic acid] | 2.6
13 | CCCCc1nc(SC)c(C(=O)O)n1Cc1ccc(-c2ccccc2S(=O)(=O)NC(=O)OCc2ccccc2)cc1 [Example 183, 1-[(2'-Benzyloxycarbonylaminosulfonylbiphenyl-4-yl)methyl]-2-n-butyl-4-methylthioimidazole-5-carboxylic acid] | 1.7
14 | CCCCc1nc(OC)c(C=O)n1Cc1ccc(-c2ccccc2S(=O)(=O)NC(=O)OCC)cc1 [Example 185, 1-{[(2'-Ethoxycarbonylaminosulfonyl)biphenyl-4-yl]-methyl}-2-n-butyl-4-methoxyimidazole-5-carbaldehyde] | 5.9
15 | CCCCc1nc(OC)c(C=O)n1Cc1ccc(-c2ccccc2S(=O)(=O)NC(=O)OCc2ccccc2)cc1 [Example 186, 1-{[(2'-Benzyloxycarbonylaminosulfonyl)biphenyl-4-]methyl}-2-n-butyl-4-methoxyimidazole-5-carbaldehyde] | 6.5
16 | CCCCc1ncc(C(=O)OCC)n1Cc1ccc(-c2ccccc2S(=O)(=O)NC(=O)NCc2ccccc2)cc1 [Example 187, Ethyl 1-{[(2'-benzylaminocarbonylaminosulfonyl)biphenyl-4-yl]methyl}-2-n-butylimidazole-5-carboxylate] | 1.2
17 | CCCCc1nc(SC)c(C(=O)O)n1Cc1ccc(-c2ccccc2S(=O)(=O)NS(=O)(=O)c2cccs2)cc1 [Example 190, 1-[(2'-{2-Thienylsulfonylaminosulfonyl}biphenyl-4-yl)methyl]-2-n-butyl-4-methylthioimidazole-5-carboxylic acid] | 22
18 | CCCCc1nc(SC)c(C(=O)OCC)n1Cc1ccc(-c2ccccc2S(=O)(=O)NS(=O)(=O)c2ccc([N+](=O)[O-])cc2)cc1 [Example 191] | 21.4
19 | CCCCc1nc(SC)c(C(=O)OCC)n1Cc1ccc(-c2ccccc2S(=O)(=O)NS(=O)(=O)c2cccs2)cc1 [Example 194] | 21.7

The remaining lines, values ahead:

Row | IC50 [nM] | SMILES
20 | 180 | CCCCc1nc(SC)c(C(=O)OCC)n1Cc1ccc(-c2ccccc2S(=O)(=O)NC(=O)NCC2CCC3CC2C3(C)C)cc1 (stereo not drawn) [Example 134]
21 | 5.6 | CCCCc1nc(SC)c(C(=O)O)n1Cc1ccc(-c2ccccc2S(=O)(=O)NC(=O)NCC2CCC3CC2C3(C)C)cc1 (stereo not drawn) [Example 135]
22 | 1.7 | CCCCc1nc(SC)c(C(=O)OCC)n1Cc1ccc(-c2ccccc2S(=O)(=O)NC(=O)n2cccc2)cc1 [Example 138]
23 | 8.2 | CCCCc1nc(SC)c(C(=O)OCC)n1Cc1ccc(-c2ccccc2S(=O)(=O)NC(=O)N2CCOCC2)cc1 [Example 140]
24 | 4.4 | CCCCc1nc(SC)c(C(=O)OCC)n1Cc1ccc(-c2ccccc2S(=O)(=O)NC(=O)N2CCCC2)cc1 [Example 141]
25 | 5.3 | CCCCc1nc(SC)c(C(=O)OCC)n1Cc1ccc(-c2ccccc2S(=O)(=O)NC(=O)N2CCSCC2)cc1 [Example 144]
26 | 40 | CCCCc1nc(SC)c(C(=O)OCC)n1Cc1ccc(-c2ccccc2S(=O)(=O)NC(=O)N2CCC(NC(=O)OC(C)(C)C)CC2)cc1 [Example 146]
27 | 0.4 | CCCCc1nc(SC)c(C(=O)OCC)n1Cc1ccc(-c2ccccc2S(=O)(=O)NC(=O)OCCc2ccccc2)cc1 [Example 151]
28 | 0.88 | C=CCCOC(=O)NS(=O)(=O)c1ccccc1-c1ccc(Cn2c(CCCC)nc(SC)c2C(=O)O)cc1 [Example 153]
29 | 1.8 | C#CCCOC(=O)NS(=O)(=O)c1ccccc1-c1ccc(Cn2c(CCCC)nc(SC)c2C(=O)O)cc1 [Example 154]
30 | 6 | CCCCc1nc(SC)c(C(=O)O)n1Cc1ccc(-c2ccccc2S(=O)(=O)NC(=O)OCC2CC2)cc1 [Example 155]
31 | 4.7 | CCCCc1nc(SC)c(C(=O)OCC)n1Cc1ccc(-c2ccccc2S(=O)(=O)NC(=O)OCCOC(C)C)cc1 [Example 156]
32 | 1.4 | CCCCc1nc(SC)c(C(=O)O)n1Cc1ccc(-c2ccccc2S(=O)(=O)NC(=O)OCCOC(C)C)cc1 [Example 157]
33 | 8.7 | CCCCc1nc(SC)c(C(=O)OCC)n1Cc1ccc(-c2ccccc2S(=O)(=O)NC(=O)OCc2cccs2)cc1 [Example 159]
34 | 57 | CCCCc1nc(SC)c(C(=O)OCC)n1Cc1ccc(-c2ccccc2S(=O)(=O)NC(=O)OCC=Cc2ccccc2)cc1 [Example 161]
35 | 3.7 | CCCCc1nc(SC)c(C(=O)OCC)n1Cc1ccc(-c2ccccc2S(=O)(=O)NC(=O)OCc2cccs2)cc1 [Example 163]
36 | 2.3 | CCCCc1nc(SC)c(C(=O)O)n1Cc1ccc(-c2ccccc2S(=O)(=O)NC(=O)OCC=C(C)C)cc1 [Example 165]
37 | 1.2 | C=C(C)COC(=O)NS(=O)(=O)c1ccccc1-c1ccc(Cn2c(CCCC)nc(SC)c2C(=O)O)cc1 [Example 166]
38 | 4 | C=CCCCOC(=O)NS(=O)(=O)c1ccccc1-c1ccc(Cn2c(CCCC)nc(SC)c2C(=O)O)cc1 [Example 167]
39 | 7 | CCCCc1nc(SC)c(C(=O)O)n1Cc1ccc(-c2ccccc2S(=O)(=O)NC(=O)OCC2CC=CCC2)cc1 (stereo not drawn) [Example 168]
40 | 2.9 | CC#CCOC(=O)NS(=O)(=O)c1ccccc1-c1ccc(Cn2c(CCCC)nc(SC)c2C(=O)O)cc1 [Example 169]
41 | 2.7 | CCCCc1nc(SC)c(C(=O)OCC)n1Cc1ccc(-c2ccccc2S(=O)(=O)NC(=O)OCC)cc1 [Example 170]
42 | 0.7 | CCCCc1nc(SC)c(C(=O)O)n1Cc1ccc(-c2ccccc2S(=O)(=O)NC(=O)OCC)cc1 [Example 171]
43 | 5.1 | CCCCc1nc(SC)c(C(=O)OCC)n1Cc1ccc(-c2ccccc2S(=O)(=O)NC(=O)OC)cc1 [Example 174]
44 | 1 | C=CCOC(=O)NS(=O)(=O)c1ccccc1-c1ccc(Cn2c(CCCC)nc(SC)c2C(=O)O)cc1 [Example 181, 1-[(2'-allyloxycarbonylaminosulfonylbiphenyl-4-yl)methyl]-2-n-butyl-4-methylthioimidazole-5-carboxylic acid]
45 | 3 | CCCCc1nc(SC)c(C(=O)OCC)n1Cc1ccc(-c2ccccc2S(=O)(=O)NC(=O)NC)cc1 [Example 195]
